The text below walks through data of ChEMBL document CHEMBL3758177, “Synthesis and biological evaluation of novel phosphoramidate derivatives of coumarin as chitin synthase inhibitors and antifungal agents” (Eur J Med Chem, 2016).

≈ marks a conversion by molar mass, not a printed value.

The test system of experiment [1] is Fusarium oxysporum. Briefly: Antifungal activity against Fusarium oxysporum ITCC 6246 after 48 hrs by microdilution method. It is filed as functional. As to conditions: ITCC 6246, 48 h. On the technique in general: Broth dilution looks for growth in wells or tubes with falling amounts of substance.
The subject of experiment [2] is Candida albicans. The experiment in a line: Antifungal activity against Candida albicans CMCC 76615 after 48 hrs by microdilution method. Type of experiment: functional. Particulars: CMCC 76615, 48 h.
The next experiment deals with Aspergillus flavus. Briefly: Antifungal activity against Aspergillus flavus ATCC 16870 after 24 hrs by two-fold serial dilution method. Type of experiment: functional. As to conditions: ATCC 16870, 24 h.
The test system of another experiment is Aspergillus fumigatus. Briefly: Antifungal activity against Aspergillus fumigatus GIMCC 3.19 after 24 hrs by two-fold serial dilution method. It is filed as functional. As to conditions: GIMCC 3.19, 24 h.
The subject of another experiment is Cryptococcus neoformans. Briefly: Antifungal activity against Cryptococcus neoformans ATCC 32719 after 24 hrs by two-fold serial dilution method. It is filed as functional. Particulars: ATCC 32719, 24 h.
Experiment [3] in a line: Non-competitive inhibition of Candida tropicalis ATCC 750 chitin synthase using UDP-GlcNAc as substrate by Lineweaver-Burk plot analysis.
Experiment [4] deals with Staphylococcus aureus. The experiment in a line: Antibacterial activity against Methicillin-resistant Staphylococcus aureus N 315 after 24 hrs by two-fold serial dilution method. Type of experiment: functional. As to conditions: N 315, 24 h.
In experiment [5] the test system is Staphylococcus aureus. The experiment in a line: Antibacterial activity against Staphylococcus aureus ATCC 25923 after 24 hrs by two-fold serial dilution method. It is filed as functional. As to conditions: ATCC 25923, 24 h.
For a further experiment, the system named is Bacillus spizizenii. Briefly: Antibacterial activity against Bacillus subtilis ATCC 6633 after 24 hrs by two-fold serial dilution method. As to conditions: ATCC 6633, 24 h. Type of experiment: functional.
A further experiment concerns Proteus vulgaris. The experiment in a line: Antibacterial activity against Proteus vulgaris ATCC 8427 after 24 hrs by two-fold serial dilution method. Type of experiment: functional. As to conditions: ATCC 8427, 24 h.
The next experiment has as its system Pseudomonas aeruginosa. The experiment in a line: Antibacterial activity against Pseudomonas aeruginosa ATCC 9027 after 24 hrs by two-fold serial dilution method. It is filed as functional. As to conditions: ATCC 9027, 24 h.
For a further experiment, the system named is Escherichia coli. The experiment in a line: Antibacterial activity against Escherichia coli JM 109 after 24 hrs by two-fold serial dilution method. Type of experiment: functional. Particulars: JM 109, 24 h.
A further experiment relates to Candida tropicalis. The experiment in a line: Inhibition of Candida tropicalis ATCC 750 chitin synthase using UDP-GlcNAc as substrate at 300 ug/ml after 60 mins by microplate reader method.
Experiment [6] can be described thus: Inhibition of Candida tropicalis ATCC 750 chitin synthase using UDP-GlcNAc as substrate after 60 mins by microplate reader method.
The test system of experiment [7] is Candida albicans. The experiment in a line: Antifungal activity against Candida albicans CMCC 76615 after 24 hrs by two-fold serial dilution method. It is filed as functional. Particulars: CMCC 76615, 24 h.
Experiment [8] relates to Candida albicans. The experiment in a line: Antifungal activity against Candida albicans CMCC 76615 after seven days by disc diffusion method. It is filed as functional.
Experiment [9] has as its system Fusarium oxysporum. Briefly: Antifungal activity against Fusarium oxysporum ITCC 6246 after 48 hrs by micro-titer plate method. As to conditions: ITCC 6246, 48 h. It is filed as functional.

In general, MIC refers to the smallest concentration in the dilution series that meets the test's criterion for growth inhibition. A higher MIC goes with a less susceptible organism. One may read the Ki as the equilibrium dissociation constant of an inhibitor or competing ligand from its target. Usually inhibition stands for the share of the control response that was lost under treatment. Low readings indicate little suppression, high ones strong suppression. By IC50 is commonly meant the concentration at which inhibition is half-maximal. Higher therefore signals weaker potency in that assay.

As to `Cc1ccc(NS(=O)(=O)c2cc3c(CN=[N+]=[N-])cc(=O)oc3cc2C)cc1`, the MIC against Fusarium oxysporum [1] and with Candida albicans [2] was 1 µg/mL (≈ 2.6 µM) in each case.
As to `COC(=O)C(Cc1ccccc1)NP(=O)(OCCN(C)c1cc(=O)oc2ccc(C(C)(C)C)cc12)Oc1ccccc1` (stereo unspecified), the MIC against Aspergillus flavus was 2 µg/mL (≈ 3.37 µM); with Aspergillus fumigatus it was 32 µg/mL (≈ 54 µM); in the experiment on Cryptococcus neoformans, 8 µg/mL (≈ 13.5 µM); against Staphylococcus aureus [4] it was 128 µg/mL (≈ 216 µM); with Staphylococcus aureus [5] it was 8 µg/mL (≈ 13.5 µM); with Bacillus spizizenii it was 32 µg/mL (≈ 54 µM). The MIC in the experiment on Proteus vulgaris is 16 µg/mL (≈ 27 µM); against Pseudomonas aeruginosa, 16 µg/mL (≈ 27 µM); in the experiment with Escherichia coli, 16 µg/mL (≈ 27 µM); against Candida albicans [7] it was 8 µg/mL (≈ 13.5 µM). Further, in [3], the inhibitory constant (Ki) came to 96 µM. Also, in the experiment with Candida tropicalis, the inhibition was determined as 90%. The compound also came in with an IC50 in [6] of 80 µM.
Regarding `O=c1oc2ccccc2c(Cl)c1/C=N/c1nncs1`, the “diameter of the inhibition zone (DIZ)” value with Candida albicans [8] came to 15 mm.
`C=C1CC(CC/C(C)=C\COc2ccc3ccc(=O)oc3c2)OC1=O` (stereo unspecified) returned an MIC in the experiment on Fusarium oxysporum [9] of 19 µg/mL (≈ 55.8 µM).
In the case of `COC(=O)C(C)NP(=O)(OCCN(C)c1cc(=O)oc2ccc(C)cc12)Oc1ccccc1` (stereo unspecified), the MIC in the experiment with Aspergillus flavus turned out to be 128 µg/mL (≈ 270 µM); in the experiment with Aspergillus fumigatus, 64 µg/mL (≈ 135 µM); in the experiment with Cryptococcus neoformans, 32 µg/mL (≈ 67.4 µM); against Staphylococcus aureus [4], 256 µg/mL (≈ 540 µM); against Staphylococcus aureus [5] it was 256 µg/mL (≈ 540 µM); in the experiment with Bacillus spizizenii, 256 µg/mL (≈ 540 µM). Moreover, the minimum inhibitory concentration (MIC) stood at 512 µg/mL (≈ 1080 µM) in the experiment with Proteus vulgaris, 512 µg/mL (≈ 1080 µM) in the experiment on Pseudomonas aeruginosa, 16 µg/mL (≈ 33.7 µM) against Escherichia coli and 64 µg/mL (≈ 135 µM) in the experiment on Candida albicans [7]. This compound showed an inhibition with Candida tropicalis of 61%. This compound also had an IC50 in [6] of 260 µM.
Take `OC(Cn1cncn1)(Cn1cncn1)c1ccc(F)cc1F` [FLUCONAZOLE]: the MIC stood at 32 µg/mL (≈ 104 µM) in the experiment on Aspergillus flavus; 32 µg/mL (≈ 104 µM) against Aspergillus fumigatus; 8 µg/mL (≈ 26.1 µM) with Cryptococcus neoformans; 8 µg/mL (≈ 26.1 µM) with Fusarium oxysporum [1]; 8 µg/mL (≈ 26.1 µM) against Candida albicans [2]; 16 µg/mL (≈ 52.2 µM) against Candida albicans [7].
Take `COC(=O)C(C)NP(=O)(OCCN(C)c1cc(=O)oc2ccc(C(C)(C)C)cc12)Oc1ccccc1` (stereo unspecified): the MIC in the experiment on Aspergillus flavus came out at 16 µg/mL (≈ 31 µM); against Aspergillus fumigatus it was 64 µg/mL (≈ 124 µM); in the experiment with Cryptococcus neoformans it was 64 µg/mL (≈ 124 µM); against Staphylococcus aureus [4], 1 µg/mL (≈ 1.94 µM); with Staphylococcus aureus [5], 64 µg/mL (≈ 124 µM); in the experiment on Bacillus spizizenii it was 16 µg/mL (≈ 31 µM). Further, the MIC against Proteus vulgaris turned out to be 16 µg/mL (≈ 31 µM); in the experiment on Pseudomonas aeruginosa, 16 µg/mL (≈ 31 µM); in the experiment with Escherichia coli, 16 µg/mL (≈ 31 µM); in the experiment with Candida albicans [7], 64 µg/mL (≈ 124 µM). For the same compound, in the experiment on Candida tropicalis, the inhibition is 62%. This compound also yielded an IC50 in [6] of 170 µM.
With `COC(=O)C(Cc1ccccc1)NP(=O)(OCCN(C)c1cc(=O)oc2cc(C)ccc12)Oc1ccccc1` (stereo unspecified), the MIC against Aspergillus flavus was 1 µg/mL (≈ 1.82 µM); in the experiment with Aspergillus fumigatus, 64 µg/mL (≈ 116 µM); with Cryptococcus neoformans, 32 µg/mL (≈ 58.1 µM); with Staphylococcus aureus [4], 2 µg/mL (≈ 3.63 µM); against Staphylococcus aureus [5], 32 µg/mL (≈ 58.1 µM); with Bacillus spizizenii it was 16 µg/mL (≈ 29.1 µM). Further, the MIC in the experiment with Proteus vulgaris was found to be 16 µg/mL (≈ 29.1 µM); against Pseudomonas aeruginosa, 128 µg/mL (≈ 232 µM); in the experiment with Escherichia coli it was 16 µg/mL (≈ 29.1 µM); against Candida albicans [7], 64 µg/mL (≈ 116 µM). This compound yielded an inhibition in the experiment with Candida tropicalis of 56%. In experiment [6], this compound had an IC50 of 300 µM.
As to `COC(=O)C(NP(=O)(OCCN(C)c1cc(=O)oc2ccc(C(C)(C)C)cc12)Oc1ccccc1)C(C)C` (stereo unspecified), the MIC came to 2 µg/mL (≈ 3.67 µM) in the experiment on Aspergillus flavus; 64 µg/mL (≈ 118 µM) with Aspergillus fumigatus; 32 µg/mL (≈ 58.8 µM) against Cryptococcus neoformans; 16 µg/mL (≈ 29.4 µM) in the experiment on Staphylococcus aureus [4]; 32 µg/mL (≈ 58.8 µM) in the experiment with Staphylococcus aureus [5]; 16 µg/mL (≈ 29.4 µM) in the experiment with Bacillus spizizenii. The MIC was 32 µg/mL (≈ 58.8 µM) in the experiment with Proteus vulgaris, 32 µg/mL (≈ 58.8 µM) against Pseudomonas aeruginosa, 16 µg/mL (≈ 29.4 µM) in the experiment on Escherichia coli and 64 µg/mL (≈ 118 µM) in the experiment with Candida albicans [7]. For the same compound, the inhibition in the experiment with Candida tropicalis stood at 62%. This compound also registered an IC50 in experiment [6] of 180 µM.
